The source of these data is ChEMBL document CHEMBL5390242, “Design, Synthesis, and Antitumor Efficacy of Substituted 2-Amino[1,2,4]triazolopyrimidines and Related Heterocycles as Dual Inhibitors for Microtubule Polymerization and Janus Kinase 2” (J Med Chem, 2023).

One experiment relates to KP-4. As to the kind of experiment: Antiproliferative activity against human KP-4 cells assessed as cell growth inhibition incubated for 48 hrs by MTT assay. Type of experiment: functional, cell-based. The settings on record: KP-4, 48 h. In general terms: Formazan colour is commonly taken as a measure of viable cells.
The next experiment relates to HeLa. In words: Antiproliferative activity against human HeLa cells assessed as cell growth inhibition incubated for 48 hrs by MTT assay. The experiment is classed as functional, cell-based.
For another experiment, the system named is MCF7. As to the kind of experiment: cells. The settings on record: Homo sapiens, MCF7, 48 h.
A further experiment relates to BXPC-3. In words: Antiproliferative activity against human BXPC-3 cells assessed as cell growth inhibition incubated for 48 hrs by MTT assay. The settings on record: BXPC-3, 48 h. The experiment is classed as functional, cell-based.
The test system of the next experiment is A549. As to the kind of experiment: Antiproliferative activity against human A549 cells assessed as cell growth inhibition incubated for 48 hrs by MTT assay. Type of experiment: functional, cell-based. The settings on record: A549, 48 h.
The target of experiment [1] is T1, Tyrosine-protein kinase JAK2 (Homo sapiens, UniProt O60674). In words: Inhibition of JAK2 (unknown origin) using Poly-(Glu,Tyr 4:1) peptide as substrate in presence of ATP by ADP-Glo reagent based assay. (In ADP-Glo the light output rises with the ADP produced.)
T1 sequence (O60674 whole entry): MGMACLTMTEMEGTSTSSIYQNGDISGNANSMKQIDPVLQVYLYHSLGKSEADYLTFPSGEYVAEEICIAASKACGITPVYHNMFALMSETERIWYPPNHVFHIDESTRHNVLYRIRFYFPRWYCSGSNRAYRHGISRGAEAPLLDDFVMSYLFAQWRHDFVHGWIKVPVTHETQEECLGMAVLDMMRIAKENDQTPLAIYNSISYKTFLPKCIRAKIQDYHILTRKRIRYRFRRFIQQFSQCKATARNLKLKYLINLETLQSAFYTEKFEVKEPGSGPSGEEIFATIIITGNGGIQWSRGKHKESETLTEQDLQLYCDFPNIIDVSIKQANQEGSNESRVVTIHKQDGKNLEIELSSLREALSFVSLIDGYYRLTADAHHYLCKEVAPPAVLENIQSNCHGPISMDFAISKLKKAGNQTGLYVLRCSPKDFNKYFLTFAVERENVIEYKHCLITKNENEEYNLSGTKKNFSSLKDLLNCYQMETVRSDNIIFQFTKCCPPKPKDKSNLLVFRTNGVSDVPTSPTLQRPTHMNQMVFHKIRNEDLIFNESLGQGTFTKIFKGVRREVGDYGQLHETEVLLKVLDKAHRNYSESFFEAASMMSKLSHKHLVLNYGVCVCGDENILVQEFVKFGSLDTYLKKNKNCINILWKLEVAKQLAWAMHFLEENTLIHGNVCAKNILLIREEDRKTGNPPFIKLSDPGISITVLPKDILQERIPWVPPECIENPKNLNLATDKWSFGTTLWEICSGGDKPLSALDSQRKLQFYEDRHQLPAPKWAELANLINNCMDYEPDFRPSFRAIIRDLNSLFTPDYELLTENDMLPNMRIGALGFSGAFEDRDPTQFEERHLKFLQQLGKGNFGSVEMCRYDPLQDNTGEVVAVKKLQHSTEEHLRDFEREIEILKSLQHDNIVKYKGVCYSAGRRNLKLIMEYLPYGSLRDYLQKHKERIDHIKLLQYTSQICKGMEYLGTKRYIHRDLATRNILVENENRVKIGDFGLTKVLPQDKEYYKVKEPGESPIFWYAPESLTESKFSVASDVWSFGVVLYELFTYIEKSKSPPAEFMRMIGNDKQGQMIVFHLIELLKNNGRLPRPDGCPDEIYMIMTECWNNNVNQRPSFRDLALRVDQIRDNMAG
Experiment [2] has as its target T1, Tyrosine-protein kinase JAK2. As to the kind of experiment: Inhibition of JAK2 (unknown origin) using Poly-(Glu,Tyr 4:1) peptide as substrate at 1 uM in presence of ATP by ADP-Glo reagent based assay relative to control.
The target of a further experiment is Tubulin (Sus scrofa, UniProt P02554+P02550). In words: Inhibition of porcine brain tubulin polymerization measured for 30 mins in presence of GTP by microplate reader assay. Type of experiment: tissue-based.

SMILES strings stand for the structures. Some results are limits rather than exact numbers.

Description for MCF7: Antiproliferative activity against human MCF7 cells assessed as cell growth inhibition incubated for 48 hrs by MTT assay

Turning to `COc1ccc(Nc2nc3ccnc(-c4cc(OC)c(OC)c(OC)c4)n3n2)cc1[N+](=O)[O-]`, the IC50 with KP-4 came to 5460 nM; in the experiment on HeLa it was 593 nM; in the experiment on MCF7, 951 nM; in the experiment on BXPC-3 it was 1420 nM; in the experiment with A549 it was 2400 nM.
With `COc1ccc(Nc2nc3ccnc(-c4cc(OC)c(OC)c(OC)c4)n3n2)cc1N`, the IC50 in the experiment on KP-4 was found to be 1800 nM; in experiment [1] it was 326 nM; in the experiment with HeLa, 117 nM; in the experiment with MCF7 it was 189 nM; in the experiment on BXPC-3, 176 nM; at Tubulin, 4200 nM. The IC50 with A549 was found to be 201 nM. Further, the inhibition in experiment [2] was 86%.
Regarding `COc1cc(-c2nccc3nc(Nc4ccc5c(c4)[nH]c4ccccc45)nn23)cc(OC)c1OC`, the IC50 in the experiment on KP-4, in the experiment with HeLa, in the experiment on MCF7, in the experiment with BXPC-3 and in the experiment with A549 was above 10000 nM throughout.
Regarding `COc1cc(-c2cncc3nc(Nc4cccc5[nH]ccc45)nn23)cc(OC)c1OC`, the IC50 with KP-4 turned out to be 431 nM; with HeLa, 41 nM; in the experiment on MCF7 it was 26 nM; in the experiment with BXPC-3, 88 nM; in the experiment with A549, 2530 nM.
As for `COc1cc(-c2nccc3nc(Nc4ccc5c6ccccc6n(C)c5c4)nn23)cc(OC)c1OC`, the IC50 with KP-4, with HeLa, in the experiment on MCF7, with BXPC-3 and in the experiment with A549 was above 10000 nM each time.
Take `COc1cc(-c2nccc3nc(Nc4ccc5c(c4)c4ccccc4n5C)nn23)cc(OC)c1OC`: the IC50 in the experiment on KP-4 is 2120 nM; with HeLa it was above 10000 nM; in the experiment with MCF7 it was above 10000 nM; in the experiment with BXPC-3, above 10000 nM; with A549, 996 nM.
`COCOc1cc(Nc2nc3ccnc(-c4cc(OC)c(OC)c(OC)c4)n3n2)ccc1C`: the IC50 with KP-4, with HeLa, with MCF7, in the experiment on BXPC-3 and in the experiment on A549 was above 10000 nM throughout.
`COc1cc(-c2cccc3nc(Nc4cccc5[nH]ccc45)nn23)cc(OC)c1OC`: the IC50 was found to be 259 nM with KP-4; 247 nM with HeLa; 72 nM in the experiment on MCF7; 29 nM with BXPC-3; 64 nM with A549.
As for `COc1cc(Nc2nc3ccnc(-c4cccc5[nH]ccc45)n3n2)cc(OC)c1OC`, the IC50 with KP-4 turned out to be 714 nM; in the experiment with HeLa it was 982 nM; in the experiment on MCF7, 267 nM; in the experiment with BXPC-3, 692 nM; with A549 it was 1860 nM.
As to `COc1cc(-c2nccc3nc(Nc4ccc(C)c(O)c4)nn23)cc(OC)c1OC`, the IC50 with KP-4 was determined as 2180 nM; in the experiment on HeLa, 312 nM; with MCF7, 326 nM; with BXPC-3, 355 nM; with A549, 354 nM. Moreover, the inhibition in experiment [2] came to 46%.
As to `COc1cc(-c2nccc3nc(Nc4ccc5ccn(C)c5c4)nn23)cc(OC)c1OC`, the IC50 in the experiment with KP-4 was 7160 nM; with HeLa it was 2170 nM; in the experiment on MCF7, 280 nM; with BXPC-3 it was 630 nM; in the experiment on A549, above 10000 nM. In experiment [2], the inhibition came to 26%.
On to `COc1ccc(Nc2nc3ccnc(-c4cc(OC)c(OC)c(OC)c4)n3n2)cc1O`, for which the IC50 with KP-4 came out at 3150 nM; in the experiment with HeLa it was 1060 nM; with MCF7, 363 nM; with BXPC-3 it was 205 nM; in the experiment with A549, 502 nM. In experiment [2], the inhibition stood at 46%.
For `COc1cc(-c2ccnc3nc(Nc4cccc5[nH]ccc45)nn23)cc(OC)c1OC`, the IC50 in the experiment on KP-4 stood at 70 nM; in the experiment with HeLa it was 166 nM; with MCF7, 35 nM; in the experiment on BXPC-3 it was 23 nM; in the experiment on A549, 85 nM.
The like results for `COc1cc(-c2nccc3nc(Nc4cccc5[nH]c6ccccc6c45)nn23)cc(OC)c1OC` were, in that order, above 10000 nM, above 10000 nM, above 10000 nM, above 10000 nM and above 10000 nM.
On to `COc1cc(-c2nccc3nc(Nc4ccc5[nH]ccc5c4)nn23)cc(OC)c1OC`, for which the IC50 in the experiment with KP-4 turned out to be 352 nM; in experiment [1] it was 90 nM; in the experiment on HeLa, 131 nM; in the experiment with MCF7, 36 nM; in the experiment with BXPC-3, 20 nM; on Tubulin, 8800 nM. Moreover, the IC50 in the experiment with A549 worked out at 81 nM. Moreover, the inhibition in experiment [2] is 96%.
Consider `COc1cc(-c2cncc3nc(Nc4cccc5c4ccn5C)nn23)cc(OC)c1OC`, for which the IC50 stood at 106 nM with KP-4; 59 nM with HeLa; 25 nM in the experiment on MCF7; 38 nM with BXPC-3; 7150 nM in the experiment on A549.
As for `COc1ccc(-c2ccc3nnc(Nc4cc(OC)c(OC)c(OC)c4)n3c2)cc1O`, the IC50 is 4670 nM in the experiment with KP-4; 11300 nM with HeLa; 3500 nM in the experiment with MCF7; 5960 nM in the experiment on BXPC-3; 3940 nM in the experiment on A549.
`COc1cc(-c2nccc3nc(Nc4ccc5c(ccn5C)c4)nn23)cc(OC)c1OC`: the IC50 in the experiment with KP-4 is 938 nM; in experiment [1], 544 nM; in the experiment with HeLa, 202 nM; in the experiment on MCF7, 64 nM; in the experiment with BXPC-3, 40 nM; on Tubulin, 15300 nM. For the same compound, the IC50 in the experiment on A549 came out at 92 nM. Also, the inhibition in experiment [2] was found to be 77%.
On to `COc1cc(-c2ccnc3nc(Nc4cccc5c4ccn5C)nn23)cc(OC)c1OC`, for which the concentration for half-maximal inhibition (IC50) is 36 nM in the experiment on KP-4; 80 nM in the experiment with HeLa; 26 nM in the experiment with MCF7; 18 nM in the experiment on BXPC-3; 13 nM in the experiment on A549.
In the case of `COc1cc(-c2nccc3nc(Nc4cccc5c4ccn5C)nn23)cc(OC)c1OC`, the IC50 in the experiment on KP-4 amounted to 40 nM; in experiment [1], 705 nM; in the experiment on HeLa it was 29 nM; with MCF7, 46 nM; with BXPC-3, 16 nM; on Tubulin, 1600 nM. Moreover, in the experiment on A549, the 50% inhibitory concentration (IC50) came to 13 nM. In addition, in experiment [2], the inhibition was determined as 56%.
On to `COc1cc(-c2nccc3nc(Nc4cccc5cc[nH]c45)nn23)cc(OC)c1OC`, for which the IC50 in the experiment on KP-4 was found to be 1200 nM; with HeLa it was 2580 nM; with MCF7 it was 325 nM; with BXPC-3, 2410 nM; with A549, 257 nM. In addition, the inhibition in experiment [2] was found to be 1.7%.
With `COc1cc(-c2nccc3nc(Nc4cccc5ccn(C)c45)nn23)cc(OC)c1OC`, the IC50 in the experiment with KP-4, with HeLa, in the experiment on MCF7, with BXPC-3 and in the experiment with A549 was above 10000 nM each time.
As to `COc1cc(-c2nccc3nc(Nc4ccc5cc[nH]c5c4)nn23)cc(OC)c1OC`, the IC50 with KP-4 came to 610 nM; in the experiment on HeLa it was 209 nM; in the experiment with MCF7 it was 256 nM; in the experiment on BXPC-3 it was 107 nM; in the experiment with A549 it was 85 nM. Also, in experiment [2], the inhibition came to 29%.
Consider `COCOc1cc(Nc2nc3ccnc(-c4cc(OC)c(OC)c(OC)c4)n3n2)ccc1OC`, for which the IC50 in the experiment with KP-4 was above 10000 nM; with HeLa it was above 10000 nM; with MCF7 it was 1500 nM; with BXPC-3, 3960 nM; in the experiment on A549 it was above 10000 nM.

For orientation: IC50 means the concentration needed to halve the response being measured. The term inhibition denotes how much of the control response was suppressed.
